The values below come from publication PMC3347531, “Mutation of Residue βF71 of Escherichia coli Penicillin Acylase Results in Enhanced Enantioselectivity and Improved Catalytic Properties” (Acta Naturae, 2009).

This experiment deals with T1, penicillin acylase (PA) from Escherichia coli (Escherichia coli, UniProt P06875).
T1 construct: gene pac; mature alpha/beta heterodimer processed from one precursor; recombinant from plasmid pEC in E. coli, purified
The experiment in a line: initial rate hydrolysis, enantioselectivity from kcat/Km ratio. It is filed as biochemical.

T1 sequence (P06875 27-235): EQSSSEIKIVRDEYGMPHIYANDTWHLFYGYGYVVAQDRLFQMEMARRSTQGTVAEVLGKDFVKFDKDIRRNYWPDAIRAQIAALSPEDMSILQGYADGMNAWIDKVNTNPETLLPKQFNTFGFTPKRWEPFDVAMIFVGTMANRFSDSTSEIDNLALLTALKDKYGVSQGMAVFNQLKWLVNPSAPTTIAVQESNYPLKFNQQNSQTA
T1 sequence (P06875 290-846): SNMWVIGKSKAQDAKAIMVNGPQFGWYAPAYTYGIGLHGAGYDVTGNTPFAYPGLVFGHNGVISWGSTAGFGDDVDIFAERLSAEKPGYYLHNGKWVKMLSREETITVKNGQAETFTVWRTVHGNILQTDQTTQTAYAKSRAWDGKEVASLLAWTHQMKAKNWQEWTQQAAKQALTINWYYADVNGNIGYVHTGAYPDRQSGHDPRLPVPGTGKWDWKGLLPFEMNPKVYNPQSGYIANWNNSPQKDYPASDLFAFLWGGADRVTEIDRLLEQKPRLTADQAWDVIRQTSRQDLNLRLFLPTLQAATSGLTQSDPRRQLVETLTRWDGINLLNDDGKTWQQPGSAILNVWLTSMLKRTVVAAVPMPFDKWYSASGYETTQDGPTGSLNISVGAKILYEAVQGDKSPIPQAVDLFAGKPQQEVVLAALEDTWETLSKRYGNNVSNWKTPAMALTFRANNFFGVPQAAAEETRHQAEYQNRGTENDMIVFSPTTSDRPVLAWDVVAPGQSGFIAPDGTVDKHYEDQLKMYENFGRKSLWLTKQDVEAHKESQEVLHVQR

`O=C(Cc1ccccc1)N[C@H](C(=O)O)c1ccccc1` [N-phenylacetyl-L-phenylglycine]: the “initial rate hydrolysis, enantioselectivity from kcat/Km ratio” value is “WT PA exhibits already a very good chiral discrimination of N-phenylacetyl-phenylglycine enantiomers”.
